“Also recorded” adds a separate entry of the source. Read-outs that look alike come from different tables or passages of the source. Bridge positions count the residues as written; N and C are the ends. Peptide text beside a SMILES is read from it.

The target of assay [1] is T1, PCSK9 (Homo sapiens, UniProt Q8NBP7). The assay is described as follows: Surface plasmon resonance biosensor-based affinity analysis (Example 4). It counts as binding. The conditions noted are these: for Kd: Table 7, Target PCSK9, SPR at 20° C. In general terms: Surface plasmon resonance follows binding to a sensor surface in real time, without labels.
In assay [2] the target is T2, PCSK9Δhelix (Homo sapiens, UniProt Q8NBP7).
T2 construct: Human PCSK9 construct M1-Q692 with an engineered TEV site (residue deletion Y166, R167); made in house; host or cells: CHO
Described as above. It is filed as binding.

The target in assay [3] is T3, PCSK9-R167A:R215A:R218A (PCSK9-AAA) (Homo sapiens, UniProt Q8NBP7, R167A/R215A/R218A).
T3 construct: made in house; host or cells: CHO (transient)
The assay is described as follows: FXIa cleavage assay of the P′ helix of PCSK9-AAA. The conditions noted are these: immunoblot with anti-N-terminal peptide antibody. It is filed as biochemical. On the procedure: The PCSK9-AAA mutant (2.6 μM) was incubated with 50 nM FXIa (Haematologic Technologies) in Tris buffer (50 mM Tris, 150 mM NaCl, 4 mM CaCl2, pH 8.0) at room temperature for the indicated time periods. […] After SDS-PAGE of the samples, proteins were transferred to a nitrocellulose membrane using iBlot (Invitrogen). Proteins were then probed with a polyclonal rabbit antibody (1:3000) raised against the PCSK9 N-terminal peptide (^153[…]^168 (SEQ ID NO: 5)), followed with HRP-conjugated donkey anti-rabbit antibody (1:5000, GE Healthcare) using iBind (Invitrogen). PCSK9 signals were detected by ECL (GE Healthcare) and visualized by autoradiography.
Proteins were then probed with a polyclonal rabbit antibody (1:3000) raised against the PCSK9 N-terminal peptide (^153[…]^168 (SEQ ID NO: 5)), followed with HRP-conjugated donkey anti-rabbit antibody (1:5000, GE Healthcare) using iBind (Invitrogen). PCSK9 signals were detected by ECL (GE Healthcare) and visualized by autoradiography.

Assay [4] has as its target T1, PCSK9. Nature of the assay: PCSK9/EGF(A) TR-FRET binding assay. The conditions noted are these: TR-FRET, read-out: PCSK9/EGF(A) IC50. (In general: TR-FRET usually uses a lanthanide donor and a delayed reading to cut background.)
Assay [5] has as its target T2, PCSK9Δhelix. The assay is described as follows: PCSK9Δhelix/Ab20 TR-FRET binding assay.
Another assay concerns His-EGF(A)-Fc. The assay is described as follows: His-EGF(A)-Fc TR-FRET counterscreen.
In assay [6] the target is T1, PCSK9. Nature of the assay: Cell surface LDLR assay with HepG2 cells. It counts as cell-based. The conditions noted are these: HepG2 cells, 15 μg/mL PCSK9, 4 h, FACS. How it is done:
HepG2 cells (ATCC; Manassas, Va.) were seeded into 48 well plates (Corning; Corning, N.Y.) at 1×10^5 cells per well in high glucose medium (DMEM, Gibco; Carlsbad, Calif.) containing 2 mM glutamine (Sigma), penicillin/streptomycin (Gibco) and 10% FBS (Sigma; St. Louis, Mo.) and incubated overnight. Then the medium was changed to DMEM containing 10% lipoprotein deficient serum (LPDS, Sigma). After 24 h, 15 μg/mL PCSK9 was incubated with peptides or Fab33 for 30 min, added to the cells and incubated at 37° C. for 4 h. Cells were rinsed with PBS and detached using Cell Dissociation Buffer in PBS (Gibco). After centrifugation, the resuspended cells were incubated with 1:20 anti LDLR antibody (Progen Biotechnik; Heidelberg, Germany) on ice for 10 min. The samples were then washed with PBS and incubated with 1:200 diluted goat anti mouse IgG (H+L) Alexa Fluor 488 (Invitrogen; Carlsbad, Calif.) on ice for 5 min. After two PBS washes, cells were re suspended in PBS containing 2.5 μg/mL of propidium iodide and analyzed on a dual laser flow cytometer (FACScan, Becton Dickinson; Franklin Lakes, N.J.). Relative fluorescence units (RFUs) were used to quantify LDLR expression levels on the HepG2 cell surface. Cell surface LDLR levels were expressed as percent of LDLR levels measured in the absence of PCSK9 (=control).
The effect of Compound 229 on PCSK9-mediated LDL receptor degradation was measured in a HepG2 cell assay as previously described (Zhang et al., J Biol Chem. 2014 Jan. 10; 289(2):942-55). Peptides at various concentrations were preincubated with 15 μg/mL PCSK9 in the presence of 0.5% DMSO for 30 min prior to the addition to cells. After a 4 h incubation, the cells were processed for measurements of LDL receptor surface levels by flow cytometry as described (Zhang et al., J Biol Chem. 2014 Jan. 10; 289(2):942-55) (FIG. 37).

Assay [7] has as its target T1, PCSK9. Nature of the assay: Phage competition ELISA. It is filed as binding. On the procedure: The sequences of selected clones were fused to the N-terminus of M13 major coat protein (p8) using Kunkel mutagenesis method (Kunkel et al., Methods Enzymol 154, 367-82). The resulting construct was transformed to E. Coli. XL1 blue, single colony was grown in 1 mL 2YT supplemented with 50 μg/mL carbenicillin, 10 μg/mL Tetracycline and M13 KO7 helper phage at 37° C. for 2 h, Kanamycin was added to final concentration of 25 μg/mL, growth was continued at 37° C. for 6 h. The culture was transferred to 30 mL 2YT supplemented with 50 μg/mL carbenicillin and 25 μg/mL kanamycin and grown at 37° C. overnight. The next day, the phage was harvested and purified using the standard protocol (Tonikian et al. Nat Protoc. 2007; 2(6):1368-86). The serially diluted phage solution was applied to the biotinylated PCSK9 and biotinylated PCSK9Δhelix that had been immobilized for 15 min on a 384-well MaxiSorp ImmunoPlate previously coated with 5 μg/mL NeutrAvidin and blocked with Block buffer. The plate was incubated at 4° C. for 1 h, washed 10 times with PT buffer (PBS, 0.05% Tween® 20). The bound phage was detected with anti-M13-HRP and the ELISA signal was read at OD450 nm. The background was ELISA signal that the phage directly bound to NeutrAvidin-coated plate. The data was plotted and the curve fitted with KaleidaGraph. Sub-saturating phage concentration that gave 80% of maximum binding signal was determined by the binding curve.
IC50 measurements were performed by mixing a fixed sub-saturating concentration of peptide-displaying phage with a serial dilution of synthetic peptides in PBT buffer. The mixture was added to plates coated with PCSK9 and PCSK9Δhelix and incubated for 1 h at room temperature. The plates were then washed 10 times with PBT buffer and the bound phage was detected by anti-M13-HRP. The data was plotted, curve fitted and IC50 derived by use of KaleidaGraph. All measurements were repeated 3 times independently.

Assay [8] addresses T2, PCSK9Δhelix. The assay is described as follows: SPR affinity measurements of peptide binding (Example 8). Particulars: Table 10, binding to PCSK9Δhelix. How it is done:
A Biacore™ T100 or Biacore™ 8K was adjusted to 20° C. The system was primed into assay buffer which consisted of 25 mM HEPES, pH 7.5, 0.15 M NaCl, 0.005% (v/v) Tween® 20, 0.2 mM tris(2-carboxyethyl)phosphine and optionally contained 0.1% (w/v) carboxymethylated dextran (average MW 10 kDa) and 0.2% (w/v) PEG (average MW 3450 Da) in order to reduce potential non-specific binding. Peptides were assayed by capturing fresh PCSK9 or PCSK9Δhelix after each binding regeneration cycle by exploiting a histidine tag and an NTA-sensor chip. The surface was charged with (His)8-tagged PCSK9 (approximately 800 RU captured). […] Compound 19 and Compound 20 were assayed in six serial two-fold dilutions from 100 nM to 3.1 nM. All peptides were analyzed in duplicate by serial injection (50 μL/min for 1 min) of peptide dilution from low to high concentration. The surface was then stripped of target by injecting 0.5 M EDTA, pH 8.0. This sequence was repeated for each peptide binding cycle and blank control cycles.
All SPR data was recorded in duplicate for five, or more serial dilutions, except for the two fusion peptides, which produced extremely low fitting error. Multicycle data (i.e. separate curves for each concentration) and single cycle data (i.e. single curve with serial injection of each concentration) were double referenced and fitted to an interaction model using BIAevaluation software. Peptide binding to PCSK9 produced deviations from a simple 1:1 binding interaction model that required application of a two-state model for determination of Kd while interactions with PCSK9Δhelix conformed well to simple 1:1 binding. Kinetic curvature was poorly defined for rapidly dissociating peptides and in these cases Kd was estimated from a steady-state dose response plot. Kd values were reported with associated standard error, a measure of confidence in that parameter value.

Where [9] appears, read: Table 7, Target PCSK9Δhelix, SPR at 20° C., read-out: Kd.
The mark [10] stands for this setting: Example 4, read-out: Kd for PCSK9Δhelix.
[11] abbreviates: Table 8D, disulfide-cyclized extension peptides.
[12] abbreviates: TR-FRET, Example 7, read-out: PCSK9Δhelix/Ab20 IC50.
Setting [13] is: TR-FRET, Table 8D, disulfide-cyclized extension peptides, read-out: PCSK9Δhelix/Ab20 IC50.
Where [14] appears, read: TR-FRET counterscreen, Table 8D, * = some inhibition at highest concentrations, not sufficient to fit an IC50.

As for `CC(=O)N[C@H](C(=O)N[C@H](C(=O)N[C@@H](Cc1ccccc1)C(=O)N[C@H](C(=O)N[C@@H](CO)C(=O)N[C@@H](Cc1c[nH]c2cc(F)ccc12)C(=O)N[C@@H](CCC(=O)O)C(=O)N[C@@H](CCC(=O)O)C(=O)N[C@@H](Cc1ccc(O)cc1)C(=O)N[C@@H](CC(C)C)C(=O)N[C@@H](CC(=O)O)C(=O)N[C@@H](Cc1c[nH]c2ccccc12)C(=O)N[C@H](C(N)=O)C(C)C)[C@@H](C)O)C(C)C)[C@@H](C)O` [Compound 3, Ac-TVFTS(W6fl)EEYLDWV-NH2], at PCSK9 [1] (Table 7), the “improvement of binding to PCSK9 relative to Pep2-8” value is “about 3 fold”. Further, the Kd – broadly, the constant that tells how readily two partners part at equilibrium – at PCSK9 [1] stood at 1400 nM; at PCSK9Δhelix [2] (setting [9]), 2580 nM.

As to `CC[C@H](C)[C@@H]1NC(=O)[C@H](CCCNC(=N)N)NC(=O)[C@H](CCC(N)=O)NC(=O)[C@H](CC(C)C)NC(=O)[C@H](CC(N)=O)NC(=O)[C@H](Cc2c[nH]c3ccccc23)NC(=O)[C@@H]2CCCN2C(=O)[C@H]([C@@H](C)CC)NC(=O)[C@H](Cc2ccccc2)NC(=O)[C@@H](NC(=O)CNC(=O)[C@@H](N)CO)CSSC[C@@H](C(N)=O)NC(=O)[C@H](CC(C)C)NC(=O)[C@H](CC(C)C)NC(=O)CNC1=O` [Compound 26] (H-SGCFIPWNLQRIGLLC-NH2; disulfide 3-16), the dissociation constant (Kd) at PCSK9 [1] is 29000 nM; at PCSK9Δhelix [2] (setting [9]), 803 nM. The “effect on FXIa-mediated cleavage of the P′ helix of PCSK9-AAA” value in assay [3] was “accelerated the cleavage reaction; also recorded: able to increase the FXIa-mediated cleavage; also recorded: strongly accelerated the cleavage”.

In the case of `CC[C@H](C)[C@@H]1NC(=O)[C@H](CCCNC(=N)N)NC(=O)[C@H](CCC(N)=O)NC(=O)[C@H](CC(C)C)NC(=O)[C@H](CC(N)=O)NC(=O)[C@H](Cc2c[nH]c3ccccc23)NC(=O)[C@@H]2CCCN2C(=O)[C@H](CC(C)C)NC(=O)[C@H](CCCNC(=N)N)NC(=O)[C@@H](NC(C)=O)CSSC[C@@H](C(N)=O)NC(=O)[C@@H]2CCCN2C(=O)[C@H](CC(C)C)NC(=O)CNC1=O` [Compound 32] (Ac-CRLPWNLQRIGLPC-NH2; disulfide 1-14), the results for the Kd on PCSK9 [1] and on PCSK9Δhelix [2] (setting [10]) were 1300 nM and 210 nM, respectively. In addition, the IC50 on PCSK9 [4] (setting [11]) was over 50000 nM; at PCSK9Δhelix [5] (setting [12]), about 1000 nM; at PCSK9Δhelix [5] (setting [13]), 970 nM; with His-EGF(A)-Fc (setting [14]) it was over 50000 nM.

Turning to `CC[C@H](C)[C@@H]1NC(=O)[C@H](CCCNC(=N)N)NC(=O)[C@H](C)NC(=O)[C@H](CC(C)C)NC(=O)[C@H](CC(N)=O)NC(=O)[C@H](Cc2c[nH]c3ccccc23)NC(=O)[C@@H]2CCCN2C(=O)[C@H](CC(C)C)NC(=O)[C@H](CCCNC(=N)N)NC(=O)[C@@H](NC(C)=O)CSSC[C@@H](C(N)=O)NC(=O)[C@@H]2CCCN2C(=O)[C@H](CC(C)C)NC(=O)CNC1=O` [Compound 73] (Ac-CRLPWNLARIGLPC-NH2; disulfide 1-14), the Kd at PCSK9 [1] came to 11000 nM; at PCSK9Δhelix [2] (setting [10]), 167 nM. Further, the IC50 on PCSK9 [4] (setting [11]) was over 50000 nM; on PCSK9Δhelix [5] (setting [13]), 915 nM; in the assay with His-EGF(A)-Fc (setting [14]), over 50000 nM.

Take `CC(=O)N[C@H](C(=O)N[C@H](C(=O)N[C@@H](Cc1ccccc1)C(=O)N[C@H](C(=O)N[C@@H](CO)C(=O)N[C@@H](Cc1c[nH]c2ccccc12)C(=O)N[C@@H](CCC(=O)O)C(=O)N[C@@H](CCC(=O)O)C(=O)N[C@@H](Cc1ccc(O)cc1)C(=O)N[C@@H](CC(C)C)C(=O)N[C@@H](CC(=O)O)C(=O)N[C@@H](Cc1c[nH]c2ccccc12)C(=O)N[C@H](C(N)=O)C(C)C)[C@@H](C)O)C(C)C)[C@@H](C)O` [Pep2-8, reference compound]: the IC50 with His-EGF(A)-Fc (counterscreen, Example 7) was over 50000 nM. Moreover, on PCSK9 [6], the EC50 – broadly, the concentration that produces a half-maximal response – was in the range of 5000 to 10000 nM. The “effect on FXIa-mediated cleavage of the P′ helix of PCSK9-AAA” value in [3] is “largely prevented cleavage”. Also, on PCSK9 [7], the “competition with binding of phage-displayed Pep2-8 to PCSK9” value was “inhibited phage-displayed Pep2-8 binding”.

Consider Ac-PWNLVRIGLLR-NH2 [Compound 52], for which the Kd on PCSK9 [1] was determined as 17900 nM; on PCSK9Δhelix [2] (setting [9]), 2600 nM; at PCSK9Δhelix [8] it was 2100 nM. Besides, the IC50 at PCSK9 [4] (Example 7) was over 50000 nM; at PCSK9Δhelix [5] (setting [12]) it was 10200 nM; on PCSK9Δhelix [5] (Table 10, average ±S.D. of three experiments, read-out: Ab20 IC50), 15900 ± 1100 nM; in the assay with His-EGF(A)-Fc (counterscreen, Example 7) it was over 50000 nM.

These data come from patent US11034725B2, “Compositions and methods for treating cardiovascular disease” (Genentech, Inc., priority 2016, dated 2021).
